Experimental data as given in ChEMBL document CHEMBL1201862, “PubChem BioAssay data set” (2004).
Active and inactive are the calls of the source.

Legend:
Cytochrome P450 3A4 = Cytochrome P450 3A4 (Homo sapiens, UniProt P08684); conditions: Potency;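 also: confirmatory qHTS run detecting inhibitors and substrates of CYP3A4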
INS1 = assay: INS-1E survival protection against cytokine death – cell-based, luminescence, retest, dose response (AID 449756); type: functional; conditions: Rattus norvegicus;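 also: cell death triggered by IL-1 beta plus TNF-alpha plus IFN-gamma mixture; protective hits raise ATP signal compared with cytokine alone wells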
[1] = reduction of Shn3 3'UTR-driven luciferase in osteoblasts – cell-based, Clone20 osteoblasts, firefly luciferase, cherry-picked, dose response (AID 624132); type: functional;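 also: firefly luciferase luminescence from reporter carrying the Shn3 3'UTR in osteoblasts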
Protein Wnt-3a = Protein Wnt-3a (Mus musculus, UniProt P27467); assay: antagonism of Wnt3a pathway luciferase reporter – Wnt-LIGHT cells, luminescence, selectivity assay for Gli-SUFU antagonist project, dose response (AID 651570); type: functional; conditions: read-out: IC50_Mean;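 also: Wnt-LIGHT reporter cells stimulated with conditioned medium from Wnt3a-producing cells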
[2] = loss of viability in HepG2 cells – cell-based, CellTiter-Glo, cherry-picked, cytotoxicity control for Shn3 inhibitor project, dose response (AID 624134); type: functional
[3] = molecular target: T1, COUP transcription factor 2 (Homo sapiens, UniProt P24468); assay: Luminescence-based cell-based high throughput dose response assay to identify inhibitors of COUP-TFII (NR2F2).; type: functional;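 also: HEK293 cells transiently cotransfected with COUP-TFII expression vector and reporter; luciferase reporter luminescence driven by COUP-TFII from the pX2-168 reporter plasmid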
T1 sequence (P24468 whole entry): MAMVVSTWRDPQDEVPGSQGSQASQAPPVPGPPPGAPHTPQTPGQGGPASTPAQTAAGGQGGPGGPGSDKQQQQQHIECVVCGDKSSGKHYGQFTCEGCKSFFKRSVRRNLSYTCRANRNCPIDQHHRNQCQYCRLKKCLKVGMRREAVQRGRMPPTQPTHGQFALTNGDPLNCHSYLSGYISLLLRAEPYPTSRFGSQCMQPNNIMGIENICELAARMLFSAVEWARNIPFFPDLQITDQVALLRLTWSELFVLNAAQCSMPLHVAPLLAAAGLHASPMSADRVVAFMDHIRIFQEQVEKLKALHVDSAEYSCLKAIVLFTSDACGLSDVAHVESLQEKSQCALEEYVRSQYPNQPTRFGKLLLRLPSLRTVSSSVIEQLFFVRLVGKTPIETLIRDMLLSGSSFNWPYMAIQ

[4] = non-specific 3'UTR reporter inhibition in Clone20-Shn3RL – cell-based, Renilla luciferase, cherry-picked, counter-screen for Shn3 inhibitor project, dose response (AID 624133); type: functional
[5] = HEK-293T cell viability reduction – luminescence, B-cell screen hits, cytotoxicity control for BCR NF-kB inhibitor project, dose response (AID 489021); type: functional, cell-based;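 also: HEK-293T cells carrying an NF-kB luciferase reporter; cells exposed to compound for about 14 hours before viability readout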
[6] = molecular target: G-protein coupled receptor 55 (Homo sapiens, UniProt Q9Y2T6); assay: selective activators of receptor GPR55 – imaging, U2OS cells, beta-arrestin-GFP redistribution, primary screen (AID 1961); type: functional
BJ [7] = assay: growth inhibition of engineered Ras-driven BJ cells – cell-based, alamar blue fluorescence, cherrypicked samples, dose response (AID 2631); type: functional; conditions: Homo sapiens;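 also: confirmatory dose-response assay in RAS-dependent BJ fibroblasts engineered with TERT, LT and ST, with cytotoxicity read by fluorescence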
[8] = DRD fibroblast viability loss – cell-based, non-viral oncogenic, luminescence, dose response (AID 1934); type: functional; conditions: Homo sapiens
BJ [9] = assay: BJ-TERT fibroblast viability loss – cell-based, RAS-independent, luminescence, dose response (AID 1933); type: functional; conditions: Homo sapiens
BJ [10] = assay: cells; type: functional, cell-based; conditions: Homo sapiens
[11] = viability loss in Vero cells – cytotoxicity control for Vif-APOBEC3G degradation inhibitor project, dose response (AID 1117358); type: functional; conditions: Vero
BJ [12] = assay: BJ-TERT-LT-ST fibroblast viability loss – cell-based, RAS-independent, luminescence, dose response (AID 1935); type: functional; conditions: Homo sapiens;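 also: BJ fibroblasts immortalized with TERT plus LT and ST oncogenes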
Cytochrome P450 2D6 = Cytochrome P450 2D6 (Homo sapiens, UniProt P10635);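 also: CYP2D6 member of a cytochrome P450 panel assay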
[13] = viability loss in HEK293 cells – cell-based, plate reader, cherry-picked samples, cytotoxicity control, dose response (AID 743446); type: functional
[14] = blockers of bursicon-stimulated LGR2 cAMP reporter – cell-based, HEK293, CRE-luciferase reporter, cherry pick, set 2, dose response (AID 743343); type: functional;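 also: transfected cells were stimulated with diluted bursicon conditioned medium after compound addition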
[15] = toxicity toward HepG2 liver cells – cell-based, plate reader, cherry-pick, antagonist series, cytotoxicity control, dose response (AID 743416); type: functional
[16] = blockade of melanocortin 4 receptor signaling – cell-based, plate reader, cherry pick, counter-screen for LGR2 antagonist project, dose response (AID 743444); type: functional;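 also: transfected HEK 293 cells stimulated with alpha-MSH peptide; potency of inhibitors of the alpha-MSH evoked signal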
[17] = HIV-1 Vif–A3G interaction blockers – biochemical, TR-FRET, GST-Vif 1-94, biotin-A3G peptide, dose response retest, primary screen (AID 1117319); type: functional;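 also: TR-FRET signal of purified GST-Vif binding a biotinylated A3G peptide; inhibitors lower the FRET signal by blocking Vif and A3G binding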
[18] = A549 cell cytotoxicity, dose response, cytotoxicity control, plate reader, cherry-pick, antagonist series (AID 743412); type: functional, cell-based
Leucine aminopeptidase = molecular target: T2, Leucine aminopeptidase (Plasmodium falciparum 3D7, UniProt Q8IL11); assay: P. falciparum M17LAP inhibitors, primary screen, biochemical, fluorogenic H-Leu-NHMec substrate, 1536-well (AID 1619); type: functional
T2 sequence (Q8IL11 whole entry): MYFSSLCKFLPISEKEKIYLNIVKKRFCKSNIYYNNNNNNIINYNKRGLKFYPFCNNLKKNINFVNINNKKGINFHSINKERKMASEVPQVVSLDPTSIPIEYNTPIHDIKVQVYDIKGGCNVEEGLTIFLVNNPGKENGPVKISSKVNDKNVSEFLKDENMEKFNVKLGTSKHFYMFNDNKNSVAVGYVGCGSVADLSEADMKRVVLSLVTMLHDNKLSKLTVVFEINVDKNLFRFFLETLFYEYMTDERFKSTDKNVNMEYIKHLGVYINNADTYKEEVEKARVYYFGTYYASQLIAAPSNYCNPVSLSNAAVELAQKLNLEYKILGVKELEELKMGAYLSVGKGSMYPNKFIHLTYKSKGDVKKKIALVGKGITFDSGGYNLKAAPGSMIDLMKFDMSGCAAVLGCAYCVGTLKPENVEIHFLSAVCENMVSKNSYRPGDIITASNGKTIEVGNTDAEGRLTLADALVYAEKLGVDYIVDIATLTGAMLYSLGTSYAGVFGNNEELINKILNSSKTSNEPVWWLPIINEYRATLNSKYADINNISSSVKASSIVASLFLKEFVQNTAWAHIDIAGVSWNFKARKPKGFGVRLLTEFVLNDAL

Cytochrome P450 3A4, sequence (P08684 whole entry): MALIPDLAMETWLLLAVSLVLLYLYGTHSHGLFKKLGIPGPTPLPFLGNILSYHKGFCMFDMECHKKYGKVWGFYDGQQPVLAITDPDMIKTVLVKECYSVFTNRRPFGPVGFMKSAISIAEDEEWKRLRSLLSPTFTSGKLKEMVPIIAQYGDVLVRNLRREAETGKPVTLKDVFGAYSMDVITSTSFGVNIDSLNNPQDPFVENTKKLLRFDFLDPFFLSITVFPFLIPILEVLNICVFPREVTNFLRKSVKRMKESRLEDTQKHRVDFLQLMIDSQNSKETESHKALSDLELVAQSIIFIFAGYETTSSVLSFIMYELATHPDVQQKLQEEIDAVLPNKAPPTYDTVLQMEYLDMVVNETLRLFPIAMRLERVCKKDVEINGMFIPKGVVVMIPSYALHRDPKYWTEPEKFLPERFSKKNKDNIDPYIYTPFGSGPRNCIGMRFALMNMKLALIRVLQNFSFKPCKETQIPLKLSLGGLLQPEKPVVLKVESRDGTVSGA
G-protein coupled receptor 55, sequence (Q9Y2T6 whole entry): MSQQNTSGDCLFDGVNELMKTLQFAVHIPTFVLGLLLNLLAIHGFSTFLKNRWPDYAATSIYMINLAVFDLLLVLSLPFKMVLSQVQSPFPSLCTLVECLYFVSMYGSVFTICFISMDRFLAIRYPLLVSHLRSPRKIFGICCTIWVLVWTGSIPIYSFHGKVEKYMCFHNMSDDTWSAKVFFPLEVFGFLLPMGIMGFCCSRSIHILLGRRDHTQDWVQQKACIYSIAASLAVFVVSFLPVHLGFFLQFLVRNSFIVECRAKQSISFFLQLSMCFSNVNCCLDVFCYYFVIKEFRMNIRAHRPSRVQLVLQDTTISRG
Cytochrome P450 2D6, sequence (P10635 whole entry): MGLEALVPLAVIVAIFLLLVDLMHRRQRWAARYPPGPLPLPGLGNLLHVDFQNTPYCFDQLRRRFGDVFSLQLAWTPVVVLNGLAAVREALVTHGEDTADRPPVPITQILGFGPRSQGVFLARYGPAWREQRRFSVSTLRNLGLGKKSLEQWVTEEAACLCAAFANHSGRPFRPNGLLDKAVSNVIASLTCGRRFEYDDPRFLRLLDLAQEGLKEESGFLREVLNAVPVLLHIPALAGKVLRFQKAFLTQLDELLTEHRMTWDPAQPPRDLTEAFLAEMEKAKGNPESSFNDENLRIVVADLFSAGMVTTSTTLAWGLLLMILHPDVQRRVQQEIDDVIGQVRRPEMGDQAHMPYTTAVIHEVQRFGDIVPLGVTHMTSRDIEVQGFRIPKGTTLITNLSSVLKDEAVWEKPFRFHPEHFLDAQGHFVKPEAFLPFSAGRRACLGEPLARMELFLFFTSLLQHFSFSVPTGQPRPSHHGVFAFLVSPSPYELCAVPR
Protein Wnt-3a, sequence (P27467 whole entry): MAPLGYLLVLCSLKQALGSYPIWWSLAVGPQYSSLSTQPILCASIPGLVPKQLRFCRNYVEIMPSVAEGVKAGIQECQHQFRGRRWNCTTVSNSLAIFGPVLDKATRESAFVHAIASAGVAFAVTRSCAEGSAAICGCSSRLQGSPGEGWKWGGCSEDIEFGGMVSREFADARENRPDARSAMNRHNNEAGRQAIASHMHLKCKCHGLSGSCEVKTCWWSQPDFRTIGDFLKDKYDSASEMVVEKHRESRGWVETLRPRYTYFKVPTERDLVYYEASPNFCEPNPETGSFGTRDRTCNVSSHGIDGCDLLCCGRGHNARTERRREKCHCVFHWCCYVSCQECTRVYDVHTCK

Which AC50 (Cytochrome P450 3A4) does the source give for `CCOC(=O)[C@]1(C(NC(=O)OC)c2ccccc2)CCCC1=O` (some centres not stated) here?
The AC50 was 2.51 µM (inconclusive).

Which results are given for `CCc1ccc(CN(C)C(=O)c2cc(COc3cccc4cnccc34)on2)cc1`?
AC50 (INS1): 3.27 µM (active); AC50 [1]: 1.92 µM (active); IC50 (Protein Wnt-3a): 4.25 µM (active); AC50 [2]: 3.23 µM (active); IC50 [3]: 7.5 µM (active); AC50 [4]: 13.5 µM (active)

For `CCn1c(S)nc2cc(S(=O)(=O)N3CCCCC3)ccc21`, which IC50 [5] is on record?
Its IC50 is > 80 µM (inactive).

Which AC50 (Cytochrome P450 3A4) does the source give for `COC(=O)c1cccc(C23CC4(C2)[C@H](CN(CC2CCCCC2)[C@@H]4c2ccccc2)C3c2ccc(C(F)(F)F)cc2)c1` (some centres not stated) here?
Its AC50 is 15.8 µM (inconclusive).

With `FC(F)(F)c1ccc(C2[C@H]3CN(Cc4ccc(-c5ccccc5)cc4)[C@H](c4ccccc4)C34CC2(c2cccnc2)C4)cc1` (some centres not stated) as the molecule, how does the AC50 (Cytochrome P450 3A4) read?
The AC50 was 15.8 µM (inconclusive).

Which results are given for `COc1ccccc1-n1cnc2cc(NCc3cccs3)ccc21`?
EC50 [6]: 2.87 µM (active); EC50 (BJ [7]): 0.248 µM (active); EC50 [8]: 4.55 µM (active); EC50 (BJ [9]): 8.39 µM (inconclusive); EC50 (BJ [10]): 20.5 µM (active); CC50 [11]: > 40 µM (active); EC50 (BJ [12]): 11 µM (inconclusive)

With `O=C(CNC(=O)/C(=C\c1ccccc1)NC(=O)c1ccc(Br)cc1)OCc1ccccc1` as the molecule, how does the CC50 [11] read?
The CC50 was > 40 µM (active).

And the AC50 (Cytochrome P450 2D6)?
Its AC50 is 14.1 µM (inconclusive).

Which AC50 [13] does the source give for `COc1cc(C(=O)Oc2cccc(Nc3ncnc4ccccc34)c2)cc(OC)c1OC` here?
Its AC50 is > 52 µM (inactive).

And the AC50 [14]?
Its AC50 is 14.1 µM (active).

What about the AC50 [15] of the same molecule?
The AC50 was > 52 µM (inactive).

And the AC50 [16]?
The AC50 was 17.7 µM (active).

What about the CC50 [11] of the same molecule?
The CC50 was 35.2 µM (active).

What about the IC50 [17] of the same molecule?
Its IC50 is > 100 µM (active).

And the AC50 [18]?
The AC50 was 51.4 µM (active).

Which IC50 (Leucine aminopeptidase) does the source give for `CCOc1cc(/C=C(/C#N)c2ccc(F)cc2)ccc1OCc1ccc(C(=O)O)o1` here?
The IC50 was 23.6 µM (active).
